Data taken from PMC8580996, “2-Oxoglutarate derivatives can selectively enhance or inhibit the activity of human oxygenases” (Nature Communications, 2021).
“And” between values parts separate entries of the source, which are not always exact repeats. Equal values may be shown once. Each block holds one molecule with its values, some of them ahead of it.

Columns and labels:
[1] = target: FIH (Homo sapiens, UniProt Q9NWT6); experiment: FIH steady-state kinetic parameters (SPE-MS, initial hydroxylation rates); type: biochemical; parameters: slope of initial reaction rate: unit not given here
Sequence of FIH (Q9NWT6 whole entry): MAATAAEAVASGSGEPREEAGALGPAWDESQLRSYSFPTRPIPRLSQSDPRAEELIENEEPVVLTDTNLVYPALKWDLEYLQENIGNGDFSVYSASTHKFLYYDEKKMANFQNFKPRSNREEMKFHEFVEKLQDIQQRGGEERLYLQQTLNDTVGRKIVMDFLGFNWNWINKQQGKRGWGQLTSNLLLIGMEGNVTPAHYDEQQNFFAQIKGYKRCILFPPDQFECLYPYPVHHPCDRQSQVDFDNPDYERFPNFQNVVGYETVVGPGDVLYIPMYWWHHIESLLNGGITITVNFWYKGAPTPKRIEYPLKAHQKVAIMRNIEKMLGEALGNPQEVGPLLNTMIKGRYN
Description: Final 2OG/2OG derivative concentrations are given in Supplementary Figs. 5 and 6. Reactions were monitored with a rate of ~1 sample/40 s using the same SPE-MS configuration as described above. Data were analyzed as described above and the slopes of the initial reaction rates (Supplementary Figs. 5 and 6) fitted to a Michaelis–Menten plot using non-linear regression (GraphPad Prism 5). […]
determine kinetic parameters for 2OG derivatives (continues on the following page). Maximum velocities (vapp ) and Michaelis constants (Kapp) of FIH were determined in independent triplicates for 2OG and the 2OG […]
SPE-MS as described in the Methods section. […]
acid (LAA), and 20 μM ammonium iron(II) sulfate hexahydrate (FAS, (NH4)2Fe(SO4)2·6H2O) in buffer (50 mM […]
Tris, 50 mM NaCl, pH 7.5, 20° C). […]
data are provided as a Source Data file. […]
concentrations of 2OG; (b) hydroxylation rates used to determine kinetic parameters of FIH for 2OG; (c) time […]
3-methyl-2OG (1); (d) hydroxylation rates used to determine kinetic parameters of FIH for 1; (e) time course of […]
2OG (12); (f) hydroxylation rates used to determine kinetic parameters of FIH for 12; (g) time course of the FIH- […]
(h) hydroxylation rates used to determine kinetic parameters of FIH for 14; (i) time course of the FIH-catalyzed […]
(carboxycarbonyl)cyclopentane-1-carboxylic acid (22); (j) hydroxylation rates used to determine kinetic parameters of FIH for 22.
Supplementary Figure 6. Hydroxylation rates of FIH-catalyzed CA1-20 hydroxylations used to determine kinetic parameters for 2OG derivatives (continues on the following page). Maximum velocities (vapp ) and […]
ammonium iron(II) sulfate hexahydrate (FAS, (NH4)2Fe(SO4)2·6H2O) in buffer (50 mM Tris, 50 mM NaCl, pH […]
Source data are provided as a Source […]
of 2OG; (b) hydroxylation rates used to determine kinetic parameters of FIH for 2OG; (c) time course of the FIH-catalyzed hydroxylation reaction of the CA1-20 peptide for the shown concentrations of 3-methyl-2OG (1); (d) hydroxylation rates used to determine kinetic parameters of FIH for 1; (e) time course of the FIH -catalyzed hydroxylation reaction of the CA 1-20 peptide for the shown concentrations of 4 -methyl-2OG (12); (f) hydroxylation rates used to determine kinetic parameters of FIH for 12; (g) time course of the FIH-catalyzed hydroxylation reaction of the CA1-20 peptide for the shown concentrations of 4-ethyl-2OG (14); (h) hydroxylation rates used to determine kinetic parameters of FIH for 14; (i) time course of the FIH-catalyzed hydroxylation reaction of the CA1-20 peptide for the shown concentrations of 3-(carboxycarbonyl)cyclopentane-1-carboxylic acid (22); (j) hydroxylation rates used to determine kinetic parameters of FIH for 22.

[2] = target: T1, AspH (Homo sapiens, UniProt Q12797); parameters: method as in PMID 34163896; details: hFX-CP101–119 substrate, 330 μM 2OG or 2OG derivative, t = 15 min; cited from earlier work
T1 construct: the tetratricopeptide repeat domain (His6-AspH315-758), was produced and purified as previously reported; made in house
T1 sequence (Q12797 315-758): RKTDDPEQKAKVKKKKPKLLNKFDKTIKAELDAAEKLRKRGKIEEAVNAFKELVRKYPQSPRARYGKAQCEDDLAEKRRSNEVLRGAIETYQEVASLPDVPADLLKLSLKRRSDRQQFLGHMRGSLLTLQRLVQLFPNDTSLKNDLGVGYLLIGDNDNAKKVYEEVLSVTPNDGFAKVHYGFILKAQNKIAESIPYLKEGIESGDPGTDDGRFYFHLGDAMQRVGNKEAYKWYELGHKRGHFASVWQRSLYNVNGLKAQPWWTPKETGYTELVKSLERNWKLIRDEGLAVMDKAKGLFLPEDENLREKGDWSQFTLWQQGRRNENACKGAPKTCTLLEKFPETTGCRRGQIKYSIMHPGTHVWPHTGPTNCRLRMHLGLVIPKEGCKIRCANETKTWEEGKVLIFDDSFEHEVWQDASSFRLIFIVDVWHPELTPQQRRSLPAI

slope of initial reaction rate ([1]; CA1-20, 0.25 μM 2OG): 0.01003 and 0.007495
slope of initial reaction rate ([1]; CA1-20, 0.5 μM 2OG): 0.01547 and 0.01452 and 0.0138
slope of initial reaction rate ([1]; CA1-20, 1 μM 2OG): 0.01838 and 0.01865 and 0.02116
slope of initial reaction rate ([1]; CA1-20, 2 μM 2OG): 0.02416 and 0.02022 and 0.02356
slope of initial reaction rate ([1]; CA1-20, 4 μM 2OG): 0.02388 and 0.01977 and 0.02365
slope of initial reaction rate ([1]; CA1-20, 8 μM 2OG): 0.02261 and 0.02524
slope of initial reaction rate ([1]; HIF-1a788-822, 0.1 μM 2OG): 0.000581 and 0.000778 and 0.00072
slope of initial reaction rate ([1]; HIF-1a788-822, 0.25 μM 2OG): 0.001141 and 0.001302 and 0.001382
slope of initial reaction rate ([1]; HIF-1a788-822, 0.5 μM 2OG): 0.001962 and 0.002167 and 0.002275
slope of initial reaction rate ([1]; HIF-1a788-822, 1 μM 2OG): 0.003115 and 0.003005 and 0.00301
slope of initial reaction rate ([1]; HIF-1a788-822, 2 μM 2OG): 0.00418 and 0.004157 and 0.004411
slope of initial reaction rate ([1]; HIF-1a788-822, 4 μM 2OG): 0.004637 and 0.004674 and 0.005127
slope of initial reaction rate ([1]; HIF-1a788-822, 8 μM 2OG): 0.004319 and 0.005019 and 0.005929
slope of initial reaction rate ([1]; HIF-1a788-822, 16 μM 2OG): 0.00539 and 0.005468 and 0.006359
slope of initial reaction rate ([1]; HIF-1a788-822, 32 μM 2OG): 0.006447 and 0.005635
FIH Kmapp ([1]; HIF-1α788–822 substrate): 0.84 µM
Compound: O=C(O)CCC(=O)C(=O)O [2OG, 2-Oxoglutarate]

SPE-MS determined concentration of hydroxylated HIF-1a peptide ([1]; 0.5 uM compound 14, time 2.797 min): 0.04266 µM and 0.0716 µM and 0.08092 µM
SPE-MS determined concentration of hydroxylated HIF-1a peptide ([1]; 1 uM compound 14, time 2.797 min): 0.09973 µM and 0.05746 µM and 0.08941 µM
SPE-MS determined concentration of hydroxylated HIF-1a peptide ([1]; 1 uM compound 14, time 3.49667 min): 0.115 µM and 0.07268 µM and 0.1031 µM
SPE-MS determined concentration of hydroxylated HIF-1a peptide ([1]; 1 uM compound 14, time 4.19733 min): 0.119 µM
SPE-MS determined concentration of hydroxylated HIF-1a peptide ([1]; 2 uM compound 14, time 2.098 min): 0.07647 µM and 0.1051 µM and 0.08874 µM
SPE-MS determined concentration of hydroxylated HIF-1a peptide ([1]; 2 uM compound 14, time 2.797 min): 0.08846 µM and 0.1193 µM and 0.1194 µM
SPE-MS determined concentration of hydroxylated HIF-1a peptide ([1]; 2 uM compound 14, time 3.49667 min): 0.1173 µM and 0.1355 µM and 0.125 µM
SPE-MS determined concentration of hydroxylated HIF-1a peptide ([1]; 2 uM compound 14, time 4.19733 min): 0.1246 µM and 0.1503 µM and 0.1494 µM
SPE-MS determined concentration of hydroxylated HIF-1a peptide ([1]; 4 uM compound 14, time 0.699833 min): 0.04117 µM and 0.06069 µM and 0.06774 µM
SPE-MS determined concentration of hydroxylated HIF-1a peptide ([1]; 4 uM compound 14, time 2.098 min): 0.09804 µM and 0.1128 µM and 0.1303 µM
SPE-MS determined concentration of hydroxylated HIF-1a peptide ([1]; 4 uM compound 14, time 2.797 min): 0.119 µM and 0.1335 µM and 0.1587 µM
SPE-MS determined concentration of hydroxylated HIF-1a peptide ([1]; 4 uM compound 14, time 3.49667 min): 0.1494 µM and 0.1576 µM and 0.1863 µM
SPE-MS determined concentration of hydroxylated HIF-1a peptide ([1]; 4 uM compound 14, time 4.19733 min): 0.1634 µM and 0.187 µM and 0.2105 µM
SPE-MS determined concentration of hydroxylated HIF-1a peptide ([1]; 8 uM compound 14, time 0.699833 min): 0.05237 µM and 0.05984 µM and 0.05853 µM
SPE-MS determined concentration of hydroxylated HIF-1a peptide ([1]; 8 uM compound 14, time 2.098 min): 0.1084 µM and 0.1284 µM and 0.1223 µM
SPE-MS determined concentration of hydroxylated HIF-1a peptide ([1]; 8 uM compound 14, time 2.797 min): 0.1357 µM and 0.1566 µM and 0.1624 µM
SPE-MS determined concentration of hydroxylated HIF-1a peptide ([1]; 8 uM compound 14, time 3.49667 min): 0.1592 µM and 0.1706 µM and 0.1851 µM
SPE-MS determined concentration of hydroxylated HIF-1a peptide ([1]; 8 uM compound 14, time 4.19733 min): 0.1873 µM and 0.2041 µM and 0.2053 µM
SPE-MS determined concentration of hydroxylated HIF-1a peptide ([1]; 16 uM compound 14, time 0.699833 min): 0.04301 µM and 0.07322 µM and 0.06274 µM
SPE-MS determined concentration of hydroxylated HIF-1a peptide ([1]; 16 uM compound 14, time 2.098 min): 0.1098 µM and 0.1258 µM and 0.1325 µM
SPE-MS determined concentration of hydroxylated HIF-1a peptide ([1]; 16 uM compound 14, time 2.797 min): 0.1413 µM and 0.1532 µM and 0.1654 µM
SPE-MS determined concentration of hydroxylated HIF-1a peptide ([1]; 16 uM compound 14, time 3.49667 min): 0.1747 µM and 0.1882 µM and 0.2002 µM
SPE-MS determined concentration of hydroxylated HIF-1a peptide ([1]; 16 uM compound 14, time 4.19733 min): 0.1989 µM and 0.216 µM and 0.231 µM
SPE-MS determined concentration of hydroxylated HIF-1a peptide ([1]; 32 uM compound 14, time 0.699833 min): 0.0551 µM and 0.06691 µM and 0.07521 µM
SPE-MS determined concentration of hydroxylated HIF-1a peptide ([1]; 32 uM compound 14, time 2.098 min): 0.1143 µM and 0.1231 µM and 0.1358 µM
SPE-MS determined concentration of hydroxylated HIF-1a peptide ([1]; 32 uM compound 14, time 2.797 min): 0.1568 µM and 0.1531 µM and 0.1667 µM
SPE-MS determined concentration of hydroxylated HIF-1a peptide ([1]; 32 uM compound 14, time 3.49667 min): 0.1879 µM and 0.1751 µM and 0.1995 µM
SPE-MS determined concentration of hydroxylated HIF-1a peptide ([1]; 32 uM compound 14, time 4.19733 min): 0.214 µM and 0.2049 µM and 0.2308 µM
slope of initial reaction rate ([1]; CA1-20, 1 μM 14): 0.002761 and 0.002095 and 0.002277
slope of initial reaction rate ([1]; CA1-20, 2 μM 14): 0.00488 and 0.004776 and 0.004739
slope of initial reaction rate ([1]; CA1-20, 4 μM 14): 0.007334 and 0.006606 and 0.007233
slope of initial reaction rate ([1]; CA1-20, 8 μM 14): 0.009175 and 0.0109 and 0.00922
slope of initial reaction rate ([1]; CA1-20, 16 μM 14): 0.01109 and 0.0126 and 0.01075
slope of initial reaction rate ([1]; CA1-20, 32 μM 14): 0.01017 and 0.00931 and 0.01176
slope of initial reaction rate ([1]; HIF-1a788-822, 0.5 μM 14): 0.000241 and 0.000243 and 0.000366
slope of initial reaction rate ([1]; HIF-1a788-822, 1 μM 14): 0.000319 and 0.00043 and 0.000499
slope of initial reaction rate ([1]; HIF-1a788-822, 2 μM 14): 0.000549 and 0.000605 and 0.000685
slope of initial reaction rate ([1]; HIF-1a788-822, 4 μM 14): 0.000653 and 0.000643 and 0.000856
slope of initial reaction rate ([1]; HIF-1a788-822, 8 μM 14): 0.000767 and 0.000839 and 0.000864
slope of initial reaction rate ([1]; HIF-1a788-822, 16 μM 14): 0.00082 and 0.000767 and 0.000893
slope of initial reaction rate ([1]; HIF-1a788-822, 32 μM 14): 0.000874 and 0.000847 and 0.00081
Compound: CCC(CC(=O)C(=O)O)C(=O)O (centres unmarked) [compound 14, 4-ethyl-2OG]
AspH activity, %-substrate conversion [2]: <1%

Compound: O=C(O)C(=O)CC(CCCc1ccccc1)C(=O)O (centres unmarked) [compound 18, 4-(3-phenylpropyl)-2OG]
AspH activity, %-substrate conversion [2]: <1%
